The record followed here is PMC9023544, “Ketone-selenoesters as potential anticancer and multidrug resistance modulation agents in 2D and 3D ovarian and breast cancer in vitro models” (Scientific Reports, 2022).

One may read the IC10 as the point of the concentration-response curve where the effect stands at 10%.

Molecules are shown by their SMILES.

Experiment [1] concerns MCF-7/PAX (paclitaxel-resistant sub-line). The experiment in a line: Cytotoxic activity, 2D, resazurin, 72 h. The experiment is classed as cell-based, human. Particulars: for IC50: Homo sapiens, MCF7, 72 h, read-out: MCF-7/PAX IC50; for SI HEK293/MC7-7/PAX: IC50 HEK293 / IC50 MCF-7/PAX; for CS (collateral sensitivity index): IC50 MCF-7 / IC50 MCF-7/PAX; for IC10 of compounds: MCF-7/PAX. The procedure: (§1) The cytotoxic potential of selenoesters was tested on several cancer cell lines—HOC (human parental ovarian adenocarcinoma, HOC, A2780, Sigma-Aldrich), HOC/ADR (sub-line resistant to Adriamycin, A2780/ADR, Sigma-Aldrich), MCF-7 (human breast adenocarcinoma, ATCC®, HTB-22TM), MCF-7/PAX (resistant sub-line established by gradual adaptation of parental cells to increased concentration of paclitaxel; kindly provided by Division of Cell and Molecular Biology, Third Faculty of Medicine, Charles University, Czech Republic) and on one non-cancerous cell line—HEK293 (human embryonic kidney cell line, Leibniz Institute, DSMZ-German Collection of Microorganisms and Cell Cultures GmbH). All mentioned cell lines were authenticated using short tandem repeat (STR) profiling. Cell lines were cultivated in DMEM medium (10% FBS, 1× antibiotic antimycotic solution), except for HEK293 cell line which was cultivated without antibiotics. In case of the resistant cell lines, the medium was supplemented with a required concentration of cytostatics to maintain resistance (HOC/ADR—100 nM Adriamycin; MCF-7/PAX—300 nM paclitaxel). All cells were cultivated in a CO2 incubator (5% CO2, 37 °C, Thermo Fisher Scientific).
(§2) For the experiment, the cells at passage number 5–20 were seeded at a 1 × 10^5 cells/mL concentration into 96-well plates to 100 µL final volume. The final concentration range of the compounds was 0.63–20 µM. After an incubation of 72 h, the plates were washed 1× with PBS and resazurin solution (0.03 mg/mL in 1× PBS) was added. After 1 h of incubation, the fluorescence signal was recorded (ex./em. 560/590 nm).
(§3) The selectivity index (SI) was determined as the ratio of IC50 value for the non-cancerous cells to IC50 for the cancer cell line. For resistant cell lines, the collateral sensitivity (CS) was calculated as the ratio of IC50 value in sensitive tumour cells to IC50 in the resistant cancer cell line. In both cases, the selectivity is considered as: (1) strongly selective when SI or CS value is above 6, (2) moderately selective when SI or CS is between 3 and 6, (3) slightly selective when SI or CS is between 1 and 3 and (4) non-selective when SI or CS is less than 1[23].
In general terms: The colour change of resazurin is a common sign of viable cells or microbes.

For experiment [2], the system named is HOC/ADR (sub-line resistant to Adriamycin, A2780/ADR). The experiment is described as follows: Cytotoxic activity, 2D, resazurin, 72 h. Particulars: for IC50 / IC10: Homo sapiens, A2780 ADR, 72 h; for IC50: read-out: HOC/ADR IC50; for IC10: read-out: IC10 of compounds; for SI HEK293/HOC/ADR: IC50 HEK293 / IC50 HOC/ADR; for CS (collateral sensitivity index): IC50 HOC / IC50 HOC/ADR. The format is cell-based, human. The procedure: as §1, §2, §3

For a further experiment, the system named is HOC. The experiment is described as follows: Oxidation stress (ROS), Muse Oxidative Stress Kit. The format is cell-based, human. Particulars: 1 µM (DMSO 5% V/V), 24 h. The protocol: Selenoesters (K3, K4, K7) were tested for their ability to generate reactive oxygen species (ROS). HOC was exposed to selenoesters in concentration of 1 µM for 24 h. DMSO (5% V/V) was used as a positive control. The required volume of DMSO (1% V/V) was added to untreated cells. ROS are essential biomolecules in cellular regulation as a part of the defence mechanisms. On the other hand, their participation in cell signalling may affect apoptosis and other death pathways. In the assay, dihydroethidium (DHE) reacts with superoxide anions by forming DNA-binding fluorophore ethidium bromide. Based on fluorescence, the cell population can be distinguished into ROS negative and ROS positive cells containing oxygen radicals.
To determine the oxidation stress potential of selected selenoesters, HOC were seeded into 24-well plates at a density 2 × 10^5 cells/mL for 24 h according to the above mentioned procedure. Afterwards, the plates were washed 1 ×with PBS and fresh DMEM medium containing compounds K3, K4, K7 (final concentration—1 µM) was added for 24 h, except for the positive and negative control. […] as the oxidation stress inductor. After incubation, the cells were washed 1× with PBS and released from the surface by using a trypsin–EDTA solution. After trypsin inhibition by medium addition, the cell suspensions were centrifuged (100×g, 5 min, 25 °C), supernatants were removed, and cell pellets resuspended in 1× assay buffer. All reagents were prepared immediately before use. Afterwards, 10 µL of the cell suspension were mixed with 190 µL of working solution (Muse Oxidative stress reagent) and stained for 30 min at 37 °C. Subsequently, the […] were analysed by Guava Muse Cell Analyzer. Oxidation stress detection was performed following the instructions provided by the manufacturer.

A further experiment has as its system MCF-7 spheroids. The experiment in a line: Cytotoxic activity against 3D models, CellTiter-Glo 3D. The experiment is classed as cell-based. As to conditions: Homo sapiens, MCF7; 72 h old spheroids, 72 h incubation, n=4. The procedure: (§4) The ability of selenoesters to affect the formation of spheroids was described in the previous section. Subsequently, we have tested the cytotoxic potential of selenoesters in preformed 72 h old spheroids. Both sensitive and resistant mature breast and ovarian cells spheroids were incubated in the presence of selenoesters in a concentration range 1.6–100 µM. […] A safe concentration of selenoesters has been established based on the results of sensitization of drug-resistant 3D models.
(§5) Human ovarian and breast cancer cells (HOC, MCF-7, parental and resistant) were seeded in ultra-low attachment 96-well plates (Sigma-Aldrich) at a cell density of 0.5 × 10^5 cells/mL. After 3 days of spheroid formation, plates were carefully washed once with PBS and fresh DMEM medium (99 µL) was added. Using a binary compound dilution, the concentration range of the K3, K4, K7 compounds was prepared in new 96-well plates (0.16–10 mM). After 1 µL compound transfer, the final concentration range of compounds was 1.6–100 µM. The required volume of DMSO (1% V/V) was added to the positive control. After 72 h of incubation, 100 µL of CellTiter-Glo 3D Re-agent (Promega) was added to each well. Spheroid plates were incubated for 25 min at room temperature. Subsequently, the luminescent signal was recorded by detector (SpectraMax i3x Multi-Mode Microplate reader with MiniMax Imaging Cytometer, Molecular Devices).
Background: In ATP-based viability assays light output follows the ATP content of the culture.

A further experiment has as its system MCF-7/PAX spheroids. The experiment is described as above. The experiment is classed as cell-based. As to conditions: Homo sapiens, MCF7; 72 h old spheroids, 72 h incubation, n=4. The procedure: as §4, §5
A further experiment relates to HOC/ADR spheroids. The experiment is described as above. The experiment is classed as cell-based. As to conditions: Homo sapiens; 72 h old spheroids, 72 h incubation, n=4. The procedure:
as §4, §5

For another experiment, the system named is HOC spheroids. The experiment is described as above. The format is cell-based. Particulars: Homo sapiens; 72 h old spheroids, 72 h incubation, n=4. The protocol:
as §4, §5

The test system of experiment [3] is HEK293 (human embryonic kidney cell line). The experiment is described as follows: Cytotoxic activity, non-cancerous cell line, resazurin, 72 h. The experiment is classed as cell-based. Particulars: for IC50: Homo sapiens, HEK293, 72 h, mean ± SEM, n=3. The protocol:
as §1, §2, §3

Consider `CC(=O)C[Se]C(=O)c1ccccc1C(F)(F)F` [K4], for which the IC50 in experiment [1] is 3300 ± 300 nM; in experiment [2], 3600 ± 100 nM; in the experiment with MCF-7 spheroids it was 2100 nM; in the experiment on MCF-7/PAX spheroids it was 4800 ± 300 nM; with HOC/ADR spheroids, 10500 ± 500 nM; with HOC spheroids, 3100 ± 100 nM. In experiment [3], this compound gave an IC50 of 5400 ± 400 nM. For the same compound, in experiment [1], the “SI HEK293/MC7-7/PAX” value was found to be 1.6 ± 0.2. Moreover, the “CS (collateral sensitivity index)” value in experiment [1] and in experiment [2] was 0.6 ± 0.0 each time. The same compound returned an IC10 of compounds in experiment [1] of 1800 nM. For the same compound, the IC10 in experiment [2] is 2900 nM. Further, the “SI HEK293/HOC/ADR” value in experiment [2] amounted to 1.5 ± 0.2. Also, the “ROS(+) cells” value in the experiment on HOC is 14.5 ± 1.5 %. For the same compound, the “ROS(−) cells” value in the experiment on HOC was 85.5 ± 1.6 %. Moreover, the “selectivity indexes between HEK293 and cancer cell lines” value in experiment [3] (all cancer cell lines tested) was “highest selectivity”.

For the compound `CC(=O)C[Se]C(=O)c1ccc(Br)cc1` [K3], the IC50 was found to be 2100 ± 100 nM in experiment [1]; 2600 ± 100 nM in experiment [2]; 2500 ± 200 nM in the experiment with MCF-7 spheroids; 4000 ± 100 nM with MCF-7/PAX spheroids; 3900 ± 200 nM in the experiment on HOC/ADR spheroids; 1700 ± 100 nM in the experiment with HOC spheroids. The compound also registered an IC50 in experiment [3] of 2400 nM. Besides, the “SI HEK293/MC7-7/PAX” value in experiment [1] was 1.1 ± 0.1. The “CS (collateral sensitivity index)” value in experiment [1] was found to be 1.0 ± 0.3; in experiment [2] it was 0.7 ± 0.1. For the same compound, in experiment [1], the IC10 of compounds was 1200 nM. Further, in experiment [2], the IC10 stood at 2000 nM. Also, the “SI HEK293/HOC/ADR” value in experiment [2] is given as 0.9 ± 0.0. Besides, the “ROS(+) cells” value in the experiment with HOC worked out at 29.1 ± 4.2 %. Moreover, the “ROS(−) cells” value with HOC stood at 70.8 ± 4.2 %.

Turning to `CC(=O)C[Se]C(=O)c1ccc(C(C)(C)C)cc1` [K7], the IC50 in experiment [1] is 2400 ± 100 nM; in experiment [2], 3100 ± 300 nM; with MCF-7 spheroids, 2200 ± 300 nM; in the experiment with MCF-7/PAX spheroids it was 7500 ± 200 nM; in the experiment on HOC/ADR spheroids it was 10100 ± 500 nM; with HOC spheroids, 2800 ± 100 nM. The IC50 in experiment [3] was 1500 ± 100 nM. Also, the “SI HEK293/MC7-7/PAX” value in experiment [1] turned out to be 0.6 ± 0.1. The figures for the “CS (collateral sensitivity index)” value in experiment [1] and in experiment [2] were 0.8 ± 0.1 and 0.4 ± 0.1, respectively. The same compound yielded an IC10 of compounds in experiment [1] of 1300 nM. Also, the IC10 in experiment [2] stood at 1800 nM. Besides, in experiment [2], the “SI HEK293/HOC/ADR” value worked out at 0.5 ± 0.1. For the same compound, in the experiment with HOC, the “ROS(+) cells” value amounted to 22.3 ± 0.4 %. For the same compound, in the experiment with HOC, the “ROS(−) cells” value came to 77.7 ± 0.4 %.
